According to patent US20240382483A1, “HETEROCYCLIC EGFR INHIBITORS FOR USE IN THE TREATMENT OF CANCER” (Blueprint Medicines Corporation, priority 2021, published 2024):
Like-named read-outs stand apart in the source and are kept apart here.

Tests used:
[1] = biological target: T1, intracellular phosphorylation of EGFR in NCI-H1975 cell line that harbors the EGFR L858R T790M mutations (Homo sapiens, UniProt P00533, L858R/T790M); experiment: NCI-H1975 pEGFR AlphaLISA assay; type: cell-based; details: NCI-H1975 cells (EGFR L858R T790M), p-EGFR (Tyr1068), 4-5 hours incubation; read-out: Ext pEGFR H1975 GMean IC50 (nM) Protocol: @Pharmaron AlphaLISA (Num)
T1 construct: NCI-H1975 cell line that harbors the EGFR L858R T790M mutations (ATCC, CRL-5908); host or cells: NCI-H1975
T1 sequence (P00533 25-1210 T790M/L858R): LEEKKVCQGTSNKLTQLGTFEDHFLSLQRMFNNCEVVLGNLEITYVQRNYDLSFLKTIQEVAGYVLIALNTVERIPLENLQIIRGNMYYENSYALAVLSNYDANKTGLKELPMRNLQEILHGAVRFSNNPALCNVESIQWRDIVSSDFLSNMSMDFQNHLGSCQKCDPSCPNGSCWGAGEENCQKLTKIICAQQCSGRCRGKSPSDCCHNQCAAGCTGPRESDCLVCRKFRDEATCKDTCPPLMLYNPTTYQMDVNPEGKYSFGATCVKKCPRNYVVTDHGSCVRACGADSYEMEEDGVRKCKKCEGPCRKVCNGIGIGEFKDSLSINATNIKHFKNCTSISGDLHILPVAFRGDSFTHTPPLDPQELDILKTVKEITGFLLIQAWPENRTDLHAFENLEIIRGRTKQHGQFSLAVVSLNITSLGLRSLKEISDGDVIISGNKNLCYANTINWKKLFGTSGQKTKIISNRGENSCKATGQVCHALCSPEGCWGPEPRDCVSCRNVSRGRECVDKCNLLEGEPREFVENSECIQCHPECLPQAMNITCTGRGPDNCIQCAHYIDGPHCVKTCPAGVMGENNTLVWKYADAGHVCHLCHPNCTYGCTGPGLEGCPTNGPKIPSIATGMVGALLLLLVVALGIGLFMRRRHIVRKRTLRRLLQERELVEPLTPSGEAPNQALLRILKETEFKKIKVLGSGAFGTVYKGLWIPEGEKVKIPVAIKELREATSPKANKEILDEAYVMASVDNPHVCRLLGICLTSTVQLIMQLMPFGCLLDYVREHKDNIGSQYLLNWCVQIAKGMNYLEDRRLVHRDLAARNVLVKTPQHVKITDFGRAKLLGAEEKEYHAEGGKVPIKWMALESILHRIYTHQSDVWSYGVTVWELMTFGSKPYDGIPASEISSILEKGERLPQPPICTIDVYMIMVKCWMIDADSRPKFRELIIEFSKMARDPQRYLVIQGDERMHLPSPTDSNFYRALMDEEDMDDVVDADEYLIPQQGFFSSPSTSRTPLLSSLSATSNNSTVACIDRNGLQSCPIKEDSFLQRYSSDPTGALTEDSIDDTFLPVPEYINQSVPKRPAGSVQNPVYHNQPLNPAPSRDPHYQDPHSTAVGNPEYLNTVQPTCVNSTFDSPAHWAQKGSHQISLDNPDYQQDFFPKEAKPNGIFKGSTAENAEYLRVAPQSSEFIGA
Procedure: On the next day, the test compounds and DMSO control were added into H1975 cell plate followed by incubation at 37C/5% CO2 for 4-5 hours. […] Then 5 μL of a donor bead mix was added to each well followed by overnight incubation at room temperature in dark. On the next day, the plate was read at a compatible plate reader to obtain pEGFR signal. Percent of pEGFR inhibition was plotted against log concentration of compounds to generate IC50 values.

EGFR (L858R T790M C797S) = biological target: T2, EGFR (L858R T790M C797S) (Homo sapiens, UniProt P00533, C797S/L858R/T790M); experiment: Biochemical EGFR inhibition assay (Caliper mobility shift), EGFR LRTMCS
T2 construct: purchased SignalChem E10-122VG
T2 sequence (P00533 25-1210 T790M/C797S/L858R): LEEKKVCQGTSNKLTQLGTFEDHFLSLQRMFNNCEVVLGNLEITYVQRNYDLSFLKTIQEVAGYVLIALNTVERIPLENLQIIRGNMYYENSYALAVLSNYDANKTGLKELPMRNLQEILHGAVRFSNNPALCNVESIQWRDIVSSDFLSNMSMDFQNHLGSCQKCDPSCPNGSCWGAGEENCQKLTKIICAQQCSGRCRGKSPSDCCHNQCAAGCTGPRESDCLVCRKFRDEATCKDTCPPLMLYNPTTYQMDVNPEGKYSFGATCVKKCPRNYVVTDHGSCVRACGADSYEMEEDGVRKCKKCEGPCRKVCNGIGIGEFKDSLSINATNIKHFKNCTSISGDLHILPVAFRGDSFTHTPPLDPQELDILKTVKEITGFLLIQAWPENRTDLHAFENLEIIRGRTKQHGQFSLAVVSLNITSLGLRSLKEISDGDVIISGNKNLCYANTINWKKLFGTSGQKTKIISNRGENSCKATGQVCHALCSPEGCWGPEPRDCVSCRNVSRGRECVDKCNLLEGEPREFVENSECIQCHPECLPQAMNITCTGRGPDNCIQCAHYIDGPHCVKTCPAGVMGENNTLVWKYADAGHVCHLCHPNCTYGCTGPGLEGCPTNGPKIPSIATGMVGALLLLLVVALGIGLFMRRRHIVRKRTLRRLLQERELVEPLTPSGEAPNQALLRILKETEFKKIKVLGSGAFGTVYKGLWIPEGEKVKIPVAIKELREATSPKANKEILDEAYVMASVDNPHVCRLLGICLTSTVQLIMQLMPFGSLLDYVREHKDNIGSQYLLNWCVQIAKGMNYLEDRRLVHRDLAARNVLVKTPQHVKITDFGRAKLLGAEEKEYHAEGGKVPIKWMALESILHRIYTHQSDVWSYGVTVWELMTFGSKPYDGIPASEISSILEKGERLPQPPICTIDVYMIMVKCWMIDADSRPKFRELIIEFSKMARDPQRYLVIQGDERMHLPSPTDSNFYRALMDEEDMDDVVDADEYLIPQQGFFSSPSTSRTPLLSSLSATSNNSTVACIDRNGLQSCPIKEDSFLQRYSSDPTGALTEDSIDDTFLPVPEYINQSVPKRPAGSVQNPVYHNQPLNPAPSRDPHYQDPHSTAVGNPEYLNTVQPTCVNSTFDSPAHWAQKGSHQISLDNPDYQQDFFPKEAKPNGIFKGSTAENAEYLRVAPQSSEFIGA
Procedure: Reactions proceeded until between 10% to 20% total peptides were phosphorylated at room temperature (25° C.) and were terminated with 35 mM 2,2′,2″,2′″-(ethane-1,2-diyldinitrilo)tetraacetic acid (EDTA). Product was detected using the Caliper mobility shift detection method where the phosphorylated peptide (product) and substrate were electrophoretically separated and measured. Percent activity was plotted against log concentration of compound and points to generate an apparent IC50.

[2] = LRTMCS (PH) IC50 (nM) @ 1 mM ATP (Num), EGFR LRTMCS mutant

Row | Structure (SMILES) | IC50 [1] [nM] | IC50 (EGFR (L858R T790M C797S); [2]) [nM] | IC50 (EGFR (L858R T790M C797S); read-out: LRTMCS (PH) IC50 (nM) @ 1 mM ATP (Num), EGFR LRTMCS mutant) [nM]
1 | CC(C)c1cnc(N2C[C@@H](F)[C@H]2C)c2cnc(Nc3ccnc(N4CC[C@@H](O)[C@@](C)(F)C4)n3)cc12 (single isomer, unassigned) [Example 33, (3S,4R)-3-fluoro-1-(4-((8-((2R,3R)-3-fluoro-2-methylazetidin-1-yl)-5-isopropyl-2,7-naphthyridin-3-yl)amino)pyrimidin-2-yl)-3-methylpiperidin-4-ol or (3S,4R)-3-fluoro-1-(4-((8-((2S,3S)-3-fluoro-2-methylazetidin-1-yl)-5-isopropyl-2,7-naphthyridin-3-yl)amino)pyrimidin-2-yl)-3-methylpiperidin-4-ol] | < 10 | < 15 | 
2 | CC(C)c1cnc(N2C[C@@H](F)[C@@H]2C)c2cnc(Nc3ccnc(N4CC[C@@H](O)[C@@](C)(F)C4)n3)cc12 (single isomer, unassigned) [Example 34, (3S,4R)-3-fluoro-1-(4-((8-((2S,3R)-3-fluoro-2-methylazetidin-1-yl)-5-isopropyl-2,7-naphthyridin-3-yl)amino)pyrimidin-2-yl)-3-methylpiperidin-4-ol or (3S,4R)-3-fluoro-1-(4-((8-((2R,3S)-3-fluoro-2-methylazetidin-1-yl)-5-isopropyl-2,7-naphthyridin-3-yl)amino)pyrimidin-2-yl)-3-methylpiperidin-4-ol] | > 50 | < 15 | 
3 | C[C@H](CC#N)c1cnc(N2CC[C@H]2C)c2cnc(Nc3ccnc(N4CC[C@@H](O)[C@@](C)(F)C4)n3)cc12 (single isomer, unassigned) [Example 36, (R)-3-(6-((2-((3S,4R)-3-fluoro-4-hydroxy-3-methylpiperidin-1-yl)pyrimidin-4-yl)amino)-1-((R)-2-methylazetidin-1-yl)-2,7-naphthyridin-4-yl)butanenitrile or (S)-3-(6-((2-((3S,4R)-3-fluoro-4-hydroxy-3-methylpiperidin-1-yl)pyrimidin-4-yl)amino)-1-((R)-2-methylazetidin-1-yl)-2,7-naphthyridin-4-yl)butanenitrile] | < 10 | < 15 | 
4 | C[C@H](CC#N)c1cnc(N2CC[C@H]2C)c2cnc(Nc3ccnc(N4CC[C@@H](O)[C@@](C)(F)C4)n3)cc12 (single isomer, unassigned) [Example 37, (R)-3-(6-((2-((3S,4R)-3-fluoro-4-hydroxy-3-methylpiperidin-1-yl)pyrimidin-4-yl)amino)-1-((R)-2-methylazetidin-1-yl)-2,7-naphthyridin-4-yl)butanenitrile or (S)-3-(6-((2-((3S,4R)-3-fluoro-4-hydroxy-3-methylpiperidin-1-yl)pyrimidin-4-yl)amino)-1-((R)-2-methylazetidin-1-yl)-2,7-naphthyridin-4-yl)butanenitrile] | 10 to 20 |  | < 15
5 | CO[C@H]1CCN(c2nccc(Nc3cc4c(C(C)C)cnc(N5CCC56CN(C)C6)c4cn3)n2)C[C@@]1(C)F (single isomer, unassigned) [Example 43, N-(2-((3R,4S)-3-fluoro-4-methoxy-3-methylpiperidin-1-yl)pyrimidin-4-yl)-5-isopropyl-8-(6-methyl-1,6-diazaspiro[3.3]heptan-1-yl)-2,7-naphthyridin-3-amine or N-(2-((3S,4R)-3-fluoro-4-methoxy-3-methylpiperidin-1-yl)pyrimidin-4-yl)-5-isopropyl-8-(6-methyl-1,6-diazaspiro[3.3]heptan-1-yl)-2,7-naphthyridin-3-amine] | > 50 | 15 to 20 | 
6 | CC(C)c1cnc(N2C[C@@H](F)[C@H](F)C2)c2cnc(Nc3ccnc(N4CC[C@@H](O)[C@@](C)(F)C4)n3)cc12 (single isomer, unassigned) [Example 60, (3S,4R)-1-(4-((8-((3R,4R)-3,4-difluoropyrrolidin-1-yl)-5-isopropyl-2,7-naphthyridin-3-yl)amino)pyrimidin-2-yl)-3-fluoro-3-methylpiperidin-4-ol or (3S,4R)-1-(4-((8-((3S,4S)-3,4-difluoropyrrolidin-1-yl)-5-isopropyl-2,7-naphthyridin-3-yl)amino)pyrimidin-2-yl)-3-fluoro-3-methylpiperidin-4-ol] | 10 to 20 | < 15 | 
